Test results published in patent US4777290A, “10,10-dihydro-10-[(substituted-carbonyl)imino]-10-phe nyl-10H-phenoxaphosphines” (American Cyanamid Company, priority 1987, dated 1988).
“And” between values parts separate entries of the source, which are not always exact repeats. Identical values can stand only once. Counter-ions that a name gives are not always drawn.

Experiments:
[1] = test system: Spontaneously Hypertensive Rats; experiment: Diuretic activity in spontaneously hypertensive rats; type: in vivo, male spontaneously hypertensive rats of Okamoto strain; conditions: 0-5 hour urine
Method: The diuretic activity of the compounds of this invention was determined according to the method of Chan, P. S. and Poorvin, D., Sequential method for combined screening antihypertensive and diuretic agents in the same spontaneously hypertensive rat. Clinical and Experimental Hypertension, 1 (6), 817-830 (1979).
Male spontaneously hypertensive rats of Okamoto strain, 16 weeks old, Taconic Farms Inc., were used in the test. These rats were kept on Purina laboratory chow and tap water ad libitum for 8 weeks before use. The male adult rats (about 300 g) were dosed by gavage with a test compound at 100 mg/kg at zero hour with the exception of one male adult rat in which the test compound dosage was 50 mg/kg. The test compound was suspended in 3% preboiled starch at 50 mg/ml. Each rat was put in metabolism cage. The 0-5 hour urine was collected and urinary sodium and potassium were determined using a Beckman Astra 4.

[2] = test system: plasma renin activity; experiment: Inhibition of evoked increase of plasma renin activity (PRA) in conscious rats; type: in vivo, male Wistar rats; conditions: oral, 30 min before provocative treatment, Wistar rats
Method: Inhibition of evoked increase of plasma renin activity was determined by the following test.
Compounds were tested for their ability to prevent drug-induced elevation of plasma renin activity (PRA) in concious, male Wistar rats (180-200 g, Charles River Lab.). PRA elevation was induced by a combined oral provocative treatment (C) of hydrochlorothiazide (10 mg/kg) and 1-(3-benzoyl-3-mercapto-2-methylpropionyl-L-proline, acetate (U.S. Pat. No. 4,226,775) (1 mg/kg), prepared by compounding in a mortar and pestle with preboiled 3% starch suspension. This treatment provided the daily maximum PRA. The daily minimum PRA was obtained from rats given oral starch suspension (S) alone. The magnitude of drug effect on PRA elevation was ascertained from rats pretreated orally with test agent (D), at the indicated doses, 30 minutes prior to administration of provocative treatment (C). The test agent was also compounded in preboiled 3% starch suspension. The dose volumes for both pretreatment and provocative treatment were 2 ml/kg. One hour after provocative treatment the rats were sacrificed by decapitation and the first 3 seconds of blood collected in two chilled vacutainer tubes containing 40 μl of 150 mg/ml tripotassium EDTA. The plasmas, which were obtained by centrifugation for 20 minutes at 4° C. and 3000×G, were incubated (one of each pair at 37° C., the other at 4° C.) at pH 6.8 in 50 mM phosphate buffer to produce angiotensin I. The incubates contained peptidase inhibitors to prevent angiotensin I degradation and the incubation buffer contained 1 mg/ml lysozyme (Sigma Grade III) used as an antiabsorbant. The incubates were diluted 20 fold in cold 100 mM tris buffer (pH adjusted to 7.4 with glacial acetic acid) also containing 1 mg/ml lysozyme, and then frozen. Diluted incubates were assayed within 3 days for angiotensin I content by radioimmunoassay according to a modification of the method of Haber, et al., J. Clin. Endocrin., 29, 1349-1355 (1969).
PRA is calculated as follows:
PRA([…])=PRA 37° C.-PRA 4° C.
Percent inhibition of PRA elevation is calculated as follows: [formula]

[3] = Stability in solution; type: physicochemical
[4] = 100 mg/kg by gavage, hydrochloride
[5] = 100 mg/kg by gavage, hydrobromide

Compound	Potassium (urinary) ([1]; 100 mg/kg by gavage) [MEQ/5 Hours]	Sodium (urinary) ([1]; 100 mg/kg by gavage) [MEQ/5 Hours]	Volume (urine) ([1]; 100 mg/kg by gavage) [mL]	other results
CC(C)OC(=O)N=P1(c2ccccc2)c2ccccc2Oc2ccccc21 [10,10-Dihydro-10-[[(1-methylethoxy)carbonyl]imino]-10-phenyl-10H-phenoxaphosphine]	0.66	2.30	16.5	–
CCOC(=O)N=P1(c2ccccc2)c2ccccc2Oc2ccccc21 [10,10-Dihydro-10-[(ethoxycarbonyl)imino]-10-phenyl-10H-phenoxaphosphine]	0.49	2.20	19.0	Percent Inhibition of Plasma Renin Elevation, Av. % Inhibition ([2]; 1 mg/kg): 33%; Percent Inhibition of Plasma Renin Elevation, Av. % Inhibition ([2]; 2 mg/kg): 54%; Percent Inhibition of Plasma Renin Elevation, Av. % Inhibition ([2]; 4 mg/kg): 78%; Percent Inhibition of Plasma Renin Elevation, Av. % Inhibition ([2]; 8 mg/kg): 91%; Percent Inhibition of Plasma Renin Elevation, Av. % Inhibition ([2]; 25 mg/kg): 84%
N=P1(c2ccccc2)c2ccccc2Oc2ccccc21 [10,10-Dihydro-10-imino-10-phenyl-10H-phenoxaphosphine, sulfa] [10,10-Dihydro-10-imino-10-phenyl-10H-phenoxaphosphine, sulfate]	0.18	1.56	9.8	stability in solution [3]: stable in solution; Percent Inhibition of Plasma Renin Elevation, Av. % Inhibition ([2]; 1 mg/kg): 38%; Percent Inhibition of Plasma Renin Elevation, Av. % Inhibition ([2]; 4 mg/kg): 31% and 42%; Percent Inhibition of Plasma Renin Elevation, Av. % Inhibition ([2]; 8 mg/kg): 67%
O=C(N=P1(c2ccccc2)c2ccccc2Oc2ccccc21)OCc1cccnc1 [10,10-Dihydro-10-phenyl-10-[[(3-pyridylmethoxy)carbonyl]imino]-10H-phenoxaphosphine]	0.59	2.61	20.5	–
N=P1(c2ccccc2)c2ccccc2Oc2ccccc21 [10,10-Dihydro-10-imino-10-phenyl-10H-phenoxaphosphine, hydrochloride]	–	–	–	Potassium (urinary) [1, 4]: 0.59 MEQ/5 Hours; Sodium (urinary) [1, 4]: 2.01 MEQ/5 Hours; Volume (urine) [1, 4]: 16.5 mL
C=CCOC(=O)N=P1(c2ccccc2)c2ccccc2Oc2ccccc21 [10,10-Dihydro-10-phenyl-10-[[(2-propenyloxy)carbonyl]imino]-10H-phenoxaphosphine]	0.61	1.27	12.0	–
C#CCOC(=O)N=P1(c2ccccc2)c2ccccc2Oc2ccccc21 [10,10-Dihydro-10-phenyl-10-[[(2-propynyloxy)carbonyl]imino]-10H-phenoxaphosphine]	0.61	1.13	10.5	–
O=C(N=P1(c2ccccc2)c2ccccc2Oc2ccccc21)OC1CCOC1 (stereo not drawn) [10,10-Dihydro-10-phenyl-10-[[[(tetrahydro-3-furanyl)-oxy]carbonyl]imino]-10H-phenoxaphosphine]	0.73	1.49	14.3	–
O=C(N=P1(c2ccccc2)c2ccccc2Oc2ccccc21)OCC1CC1 [10-[[(Cyclopropylmethoxy)carbonyl]imino]-10,10-dihydro-10-phenyl-10H-phenoxaphosphine]	0.75	1.41	10.8	–
COC(=O)N=P1(c2ccccc2)c2ccccc2Oc2ccccc21 [10,10-Dihydro-10-[(methoxycarbonyl)imino]-10-phenyl-10H-phenoxaphosphine]	0.74	1.48	14.0	–
N=P1(c2ccccc2)c2ccccc2Oc2ccccc21 [10,10-Dihydro-10-imino-10-phenyl-10H-phenoxaphosphine, hydrobromide]	–	–	–	Potassium (urinary) [1, 5]: 0.26 MEQ/5 Hours; Sodium (urinary) [1, 5]: 1.12 MEQ/5 Hours; Volume (urine) [1, 5]: 8.0 mL
O=C(N=P1(c2ccccc2)c2ccccc2Oc2ccccc21)OCc1ccccc1 [10,10-Dihydro-10-phenyl-10-[[(phenylmethoxy)carbonyl]imino]-10H-phenoxaphosphine]	0.56	1.32	12.3	–
O=C(N=P1(c2ccccc2)c2ccccc2Oc2ccccc21)OCc1ccccn1 [10,10-Dihydro-10-phenyl-10-[[(2-pyridylmethoxy)carbonyl]imino]-10H-phenoxaphosphine]	–	–	–	Potassium (urinary) ([1]; 50 mg/kg by gavage): 0.74 MEQ/5 Hours; Sodium (urinary) ([1]; 50 mg/kg by gavage): 1.26 MEQ/5 Hours; Volume (urine) ([1]; 50 mg/kg by gavage): 10.8 mL
N=P1(c2ccccc2)c2ccccc2Oc2ccccc21 [10,10-Dihydro-10-imino-10-phenyl-10H-phenoxaphosphine, bis(t] [10,10-Dihydro-10-imino-10-phenyl-10H-phenoxaphosphine, bis(trifluoroacetate)]	0.66	1.16	12.5	–
O=C(N=P1(c2ccccc2)c2ccccc2Oc2ccccc21)OC1CCCC1 [10-[[(Cyclopentyloxy)carbonyl]imino]-10,10-dihydro-10-phenyl-10H-phenoxaphosphine]	0.60	1.71	14.0	–
CC(C)COC(=O)N=P1(c2ccccc2)c2ccccc2Oc2ccccc21 [10,10-Dihydro-10-[[(2-methylpropoxy)carbonyl]-imino]-10-phenyl-10H-phenoxaphosphine]	0.64	1.63	12.8	–
O=C(N=P1(c2ccccc2)c2ccccc2Oc2ccccc21)OCc1ccncc1 [10,10-dihydro-10-phenyl-10-[[(4-pyridylmethoxy)carbonyl]imino]-10H-phenoxaphosphine]	0.40	2.28	18.0	–
